One data set concerns HeLa S-3 cells. The data set can be described thus: Resazurin reduction viability assay. To be noted: HeLa, 1, 5, and 25 µM, 48 h, n = 3. Background: Resazurin is reduced to fluorescent resorufin, in cell work by metabolically active cells.
The next data set relates to Ht-29 cells. In words: Resazurin reduction viability assay. Format: cell-based, human. The conditions noted are these: Ht-29, 1, 5, and 25 µM, 48 h, n = 3.
A short description of data set [1]: Determination of PMO peptide functionalization by absorbance. Format: physicochemical. To be noted: UV absorbance in ethanol, Phe (257 nm) and Fmoc-Ala (267 nm) calibration curves, PMO baseline subtracted; estimated. How it is done:
To quantify the amounts of peptides on the PMO, a Varian Cary 50 bio benchtop spectrophotometer in the range of 200–800 nm with a 1-nm step was used ([Faura et al. 2021]). The calibration curves were determined by preparing five solutions at known concentrations of Phenylalanine and Fmoc-Alanine used as standards. Briefly, a stock solution of 5 mM Phe in absolute ethanol was diluted to the final concentrations of 0.2 mM, 0.5 mM, […], 2 mM, and 5 mM. A standard solution of 52.7 μM Fmoc-Alanine (Ala) in absolute ethanol was diluted to the concentrations of 20 μM, 10 μM, 5 μM, and 2 μM. The fluorescence signals were recorded for Phenylalanine (Phe: λex 240 nm and λem 282 nm) ([Lakowicz, 2006]) and Fmoc-Ala (λex […] and λem 280 nm) ([Pappas et al., 2014]) and plotted against their respective sample concentrations. […]
The absorbance values of peptides linked to PMOs were adjusted to account for potential interference caused by PMOs, which can scatter or absorb light in the visible and UV ranges, leading to inaccuracies in absorbance measurements of chromophores. The absorbance spectrum of PMO was subtracted from the absorbance spectrum of the sample containing the peptide@PMO. In the region of absorption of the chromophore, we observed a linear and well-defined relationship between the absorbance of PMO and wavelength. […]

Procedure for HeLa S-3 cells: For the resazurin-to-resorufin reduction assays, cells were grown in a 96-well plate for 120 min at 37 °C with resazurin solution (0.15 mg/ml) (Sigma-Aldrich, Milan, Italy). The fluorescence of resorufin was quantified on a PerkinElmer EnSpire 2,300 Multilabel Reader (ex 550 nm/em 590 nm). For the Apo-ONE assay, 25,000 cells were seeded in a 96-well white polystyrene microplate (Corning, United States of America). After 24 h, cells were treated for 36 h with oxaliplatin and oxaliplatin+SS35. Cells were then lysed and subjected to caspase-3/7 (DEVDase) activity assays by using the Apo-ONE Homogeneous Caspase-3/7 Assay (Promega, Madison, United States of America) according to the manufacturer’s instructions. After 30 min of incubation, fluorescence was recorded in the linear phase of the kinetics with a Synergy H1 plate reader (BioTek, Winooski, United States of America). For the trypan blue viability assay, cells were harvested, pelleted at 1500 rcf, and incubated for 5 min with a PBS/0.4% Trypan Blue solution (Gibco). At least 300 cells were counted for each condition.
First, Ht-29 and HeLa cells were treated with increasing doses (0.02, 0.04, and 0.06 μg/ml) of SS28, SS35, and SS36 for 48 h, and cell viability was assessed by resazurin reduction assays (Figure 6A). […]

For `N=C(N)NCCC[C@@H]1NC(=O)[C@H](CCCCN)NC(=O)[C@@H](Cc2ccccc2)NC(=O)[C@H](CC(=O)O)NC(=O)CNC1=O` [p28, cyclic[RGDfK]], the “cytotoxicity of free peptide compared with nanoparticle-conjugated peptide” value in the data set with HeLa S-3 cells and with Ht-29 cells was “significantly attenuated” throughout.

In the case of “FmocAVPI@PMO [Fmoc-protected AVPI peptide conjugated to PMO, apparently the precursor of SS36]”, the “Peptide/PMO: peptide amount binding for each milligram of PMO” value in data set [1] is recorded as 0.074 mg.
